Patent publication US20260373132A1, “PERK INHIBITORHC-5404 IN COMBINATION WITH ANTI-PD-1 ANTIBODY AND/OR AN ANTIANGIOGENETIC AGENT FOR USE IN THE TREATMENT OF CANCER” (HIBERCELL, INC., priority 2022, published 2026)

Key:
[1] = mouse plasma pharmacokinetics after single oral administration; type: in vivo
Description: Initial in vivo studies aimed at understanding the pharmacokinetic and pharmacodynamic (PK/PD) relationship and optimizing the dosing regimen were conducted. HC-5404 was quantified from mouse plasma following a single oral administration (PO) at doses ranging from 3 to 100 mg/kg. […] Mouse plasma protein binding (PPB %) was determined to be 95.6%, which enabled us to calculate the free drug plasma exposure across time (FIG. 18).

pPERK in mouse pancreas = assay: pPERK inhibition (PD) in mouse pancreas; type: in vivo
Description: The PK/PD relationship was evaluated in mouse pancreas, as the pancreas has elevated pPERK activity that makes it suitable for PD analysis. […] At these concentrations, pPERK inhibition was approximately 90% (FIG. 19).

[2] = test system: Capan-2 pancreatic tumor xenografts; assay: CAPAN-2 pancreatic xenograft tumor growth; type: in vivo, mouse; conditions: for TGI: 48 days
pPERK in Caki-1 tumors = assay: pPERK in Caki-1 tumor xenografts; type: in vivo, mouse
Description: Samples were put in 500 μL of Novex lysis buffer consisting of 2× Novex Tris-Glycine SDS sample buffer (ThermoFisher LC2676), 1× Phosphatase Inhibitor Cocktail III (Sigma P0044), 1× PhosphataseArrest I (Gbioscience 113P-D), 1×2-mercaptoethanol (Gibco 21985023), 1× Benzonase (EMD Millipore Corp 70746-3), and 1× Protease inhibitor cocktail tablet (Roche/Sigma 11836170001). Samples were homogenized with the Polytron and heated for 10 min at 95 °C. They were then centrifuged at max speed for 10 min and the supernatant was transferred. Protein concentrations of samples were measured using the Pierce 660 nm Protein assay kit (Thermo Scientific 22660) according to the manufacturer's instructions.
Western Blot analysis was performed on the SimpleWestern high-throughput protein analysis platform (ProteinSimple 004-650) according to manufacturer's protocol using a 12-230 kDA Separation Module (ProteinSimple SM-W004) and Total Protein Detection Module (ProteinSimple DM-TP01). Antibodies used were: (Add info for other antibodies used) pPERK (Lilly; 1:50) and PERK (Cell Signaling Technology 5683; 1:200). All protein analytes were normalized to total protein loaded on capillary. […]

[3] = test system: mouse bone marrow-derived MDSCs / T cells; assay: mouse T cell suppression assay with bone marrow-derived MDSCs; type: cell-based; conditions: LSLG + 500 nM (FIG. 11A, 11C)
Description: Mouse MDSC Preparation: Single cell suspensions from bone marrow were prepared from the tibia and femur bone of C57BL/6 mice. Cells were cultured in RPMI complete medium (RPMI medium supplemented with 10% FBS, 10 mM HEPES, 1 mM Sodium pyruvate, 50 uM 2-ME, 1 mM MEM NEAA, 1× penicillin-streptomycin and 2 mM L-glutamax) at 2.5×10^6 cells per 10 ml in a […] tissue culture dish for 4 days in a 37 0 °C, 5% CO2 humidified incubator. Cytokines GM-CSF (10 ng/ml) and IL-6 (10 ng/mL) were added to the cell culture on day 0. For low serum low glucose (LSLG) medium treatment, cultured cells were first harvested from the plate and washed twice with RPMI medium to rinse off residual serum and glucose, and then cultured in 5 ml of LSLG medium (glucose-free RPMI supplemented with 1% FBS, 1 g/L glucose, 1× penicillin-streptomycin and 2 mM L-glutamax) in a 15 ml conical tube for 6 hours with or without HC-5404 addition. Cells were harvested and used in the T cell suppression assay.
Mouse T cell suppression assay: Spleens were harvested from C57BL/6 mice. […] T cell proliferation was analyzed by flow cytometry. […] The labeled cells were analyzed on a BD Fortessa cytometer and data was analyzed by FlowJo. […] Data were analyzed using one-way ANOVA with multiple comparison corrected with Dunnett test. *P<0.05; **P<0.01; ***P<0.005, ****P<0.0001 (FIGS. 11A, 11B, and 11C).

[4] = test system: ASNS and PSAT1 in MFE280 tumors; assay: ASNS and PSAT1 in MFE280 tumors; type: in vivo, mouse; conditions: 7 days, HC-5404 30 mpk BID

free drug (unbound) plasma exposure at Cmax / 1 h ([1]; PO, 30 mg/kg): 355 nM
concentration at 1 h ([1]; plasma, PO, 30 mg/kg): 3670 ng/mL
concentration at 12 h ([1]; plasma, single PO, 100 mg/kg, read-out: plasma exposure up to 12 h after dosing): > 3200 ng/mL
Tmax ([1]; plasma, single PO, 3 to 100 mg/kg, read-out: time of Cmax): < 1 h
unbound plasma concentration at Cmax ([1]; single PO, 100 mg/kg): 1605 nM
unbound plasma exposure up to 12 h after dosing ([1]; single PO, 100 mg/kg): > 311 nM
average half-life ([1]; single PO, 3 to 100 mg/kg): 2.22 h
dose proportionality of exposure ([1]; single PO, up to 100 mg/kg): Dose-proportional increases in exposure
SMILES: Cc1cc(NC(=O)[C@H](O)c2cc(F)cc(F)c2)ccc1-c1cnc(N)c(C(=O)NC(C)C)c1 [HC-5404, (R)-2-amino-5-(4-(2-(3,5-difluorophenyl)-2-hydroxyacetamido)-2-methylphenyl)-N-isopropylnicotinamide]
time until basal pPERK levels restored in pancreas (pPERK in mouse pancreas; 30 mg/kg PO, after dosing): ≤ 12 h
pPERK activity remaining in pancreas (pPERK in mouse pancreas; 100 mg/kg PO, first 12 h): < 20%
inhibition at 30 mg/kg (pPERK in mouse pancreas; Mus musculus, 30 mg/kg PO, 1 h): ~90%
inhibition of p-PERK in pancreas tissue (pPERK in mouse pancreas; PO): time-dependent and dose-dependent inhibition of p-PERK
TGI ([2]; 30 mg/kg PO BID): 50%
TGI ([2]; 100 mg/kg PO BID): 43%
difference between dose levels in TGI ([2]; 30 vs 100 mg/kg BID): No difference between the dose levels
pPERK expression in Caki-1 (pPERK in Caki-1 tumors; 30 mg/kg PO BID, seven days (FIG. 30)): strongly inhibited pPERK expression
pPERK levels in Caki-1 (pPERK in Caki-1 tumors; DC-101 study, 4 days of treatment, low signal-to-noise (FIG. 37)): not affected
inhibition of T-cells by MDSCs [3]: reduced inhibition of T-cells
ASNS ([4]; lenvatinib 10 mpk QD (FIG. 79)): induces ASNS
PSAT1 ([4]; lenvatinib 10 mpk QD (FIG. 80)): induces
